The structures appear in SMILES notation. Values joined by “and” are separate entries in the source; they are usually repeats but may differ in a detail not shown here. Identical values can stand only once.

The subject of assay [1] is TGase II. Briefly: TGase II activity in cultured MCF-7 cells. Type of assay: cell-based, human. The protocol: MCF-7 cells were seeded at a density of 1.5 x 10^5 cells/ml medium (500ml DMEM + 56.2ml FBS + 5.6m1 AB/AM) in 6cm diameter dishes for 24 hours and treated with either DMSO, RA, or 13-cis RA at 10^-6 M and grown to confluence (about 72 hours). Cells were harvested and Transglutaminase II activity was measured as described below. Nebulizer solution, inhalation procedures, details of animal housing are described below.
Cultured cells were placed in 100 µl scraping buffer [A: 2800µl (400µl 0.5M Na-Phosphate, 500µl 0.01M EDTA, 100µl 1M DTT , 9ml PBS total 10ml) + B:700µl (10µl 20mg/ml PMSF 790µl PBS total 800µl)] for each dish. Cells were broken by a sonicator and kept in ice until used. TGase II assay was conducted as described below and previously {8217}.
(§1) Enzyme assay mixtures were prepared by adding 80µl of SUBSTRATE mixture (322.8µl H2O, 120µl 0.5M NaBorate, 60µl 0.01M EDTA, 60µl 0.1M CaCl2, 6µl 1M DTT, 240µl dimethyl casein, 30µl Triton X-100, 1.2µl [^3H]-Putrescine, 120µl Putrescine) to 20µl sample, 20µl scraping buffer for blank control , 20 µl (18µl scraping buffer + 2µl TGase II) for positive control. Samples were mixed in 15ml tubes, the tubes were shaken before putting them into a 28°C water bath for 30 minutes. Reactions were slowed down in an ice bath. 80µl of the incubation mixture was adsorbed onto paper disks. These were immediately dropped into cold 10% TCA (0.1% Putrescine) and washed with agitation for 7 minutes, followed by 2 additional washes with 5% TCA (0.05% putrescine) for 5~7 minutes, and once more with cold (-20°C) 95% ethanol for 5 minutes. Paper disks were dried and placed into 5ml Aquasol, and counted in a Liquid Scintillation Counter. Protein concentration determination was conducted by the Bradford method.

The test system of assay [2] is TGase II. Briefly: TGase II assay of rat lung tissue after inhaled 13-cis RA (experiment B). The format is in vivo. As to conditions: for TGase II assay / TGase II assay DPM/µg protein: rat lung. On the procedure:
Male rats (n=23) (Sprague-Dawley from Charles River) were divided into six experimental groups and were given varying amounts of 13-cis RA through an inhalant apparatus once daily for different times each day for 14 days. The experimental groups were as follows (Table 1) :1.Vehicle control : rats (3) inhaled vehicle for 240 minutes; 2. Low dose 13-cis RA: rats (4) inhaled a solution containing 13-cis RA at a concentration of 62.2µg/liter (inhaled dose 115.0µg/kg body weight) in 5 minutes; 3. Low-Middle dose 13-cis RA : rats (4) inhaled a solution containing 13-cis RA at a concentration of 62.2µg/liter (inhaled dose 334.4µg/kg body weight) in 15 minutes; 4.Middle dose 13-cis RA: rats (4) inhaled a solution containing 13-cis RA at a concentration of 62.2µg/liter (inhaled dose 1012.3µg/kg body weight) in 45 minutes; 5. Middle-High dose 13-cis RA : rats (4) inhaled a solution containing 13-cis RA at a concentration of 62.2µg/liter (inhaled dose 2843.4µg/kg body weight) in 120 minutes; 6. High dose 13-cis RA : rats (4) inhaled a solution containing 13-cis RA at a concentration of 62.2µg/liter (inhaled dose 5935.6µg/kg body weight) in 240 minutes. […]
as §1

Assay [3] relates to urethane-induced lung cancer. To be noted: orally administered, over 300 mg/kg weekly; cited from earlier work.
A further assay relates to lung metaplasia. As to conditions: Oral doses of I mg/kg, smokers; cited from earlier work.
[4] abbreviates: High: 240 minutes daily 14 Days, 1872µg/kg total deposited dose.
[5] abbreviates: Low-Middle: 15 minutes daily 14 Days, 117µg/kg total deposited dose.
[6] abbreviates: Middle-High: 120 minutes daily 14 Days, 936µg/kg total deposited dose.
[7] abbreviates: Middle: 45 minutes daily 14 Days, 351µg/kg total deposited dose.

Turning to `CC1=C(/C=C/C(C)=C/C=C/C(C)=C\C(=O)O)C(C)(C)CCC1` [13-cis RA, 13-cis-Retinoic Acid], in the assay with TGase II [1] (Homo sapiens, MCF7, 72 h, read-out: stimulating TGase II activity), the fold induction at 1 µM came out at 6.1. Moreover, the “TGase II Activity” value with TGase II [1] (MCF-7 cells, 10^-6 M, 72 hours, DMSO control 0.183) is given as 1.118 +/- 0.016 picomoles/µg protein/30 minutes. The “stimulation of lung TGase II activity” value in the assay with TGase II [2] (maximum, inhaled dose of 1012.3µg/kg, 45 minutes of inhalation, 14 days) worked out at 2.9 Fold; in the assay on TGase II [2] (with larger amounts of inhaled retinoid) it was 1.2 fold. In addition, the “TGase II assay” value in the assay on TGase II [2] (setting [4]) is 0.1025 +/- 0.004 picomoles/µg protein/30 min and 0.1025 ± 0.004 picomoles/µg protein/30 min; in the assay on TGase II [2] (setting [5]), 0.1150 +/- 0.006 picomoles/µg protein/30 min and 0.1150 ± 0.006 picomoles/µg protein/30 min; in the assay with TGase II [2] (Low: 5 minutes daily 14 Days, 39µg/kg total deposited dose, vehicle 0.0450), 0.0955 +/- 0.004 picomoles/µg protein/30 min and 0.0955 ± 0.004 picomoles/µg protein/30 min; in the assay with TGase II [2] (setting [6]), 0.1020 +/- 0.005 picomoles/µg protein/30 min and 0.1020 ± 0.005 picomoles/µg protein/30 min; in the assay on TGase II [2] (setting [7]) it was 0.1330 +/- 0.009 picomoles/µg protein/30 min. For the same compound, the “TGase II assay DPM/µg protein” value in the assay with TGase II [2] (setting [4]) was determined as 8053 DPM/µg protein; in the assay with TGase II [2] (setting [5]) it was 9035 DPM/µg protein; with TGase II [2] (Low: 5 minutes daily 14 Days, 39µg/kg total deposited dose), 7503 DPM/µg protein; in the assay on TGase II [2] (setting [6]) it was 8014 DPM/µg protein; in the assay on TGase II [2] (setting [7]), 10449 DPM/µg protein. In addition, the “prevention of urethane-induced lung cancer” value in assay [3] is “failed to prevent urethane-induced lung cancer”. Moreover, the “reversal of lung metaplasia” value with lung metaplasia is “failed even to reverse lung metaplasia”.

(Values after patent EP1263420B1 (priority 2000, dated 2001).)
